Entries after “also recorded” stand apart in the source; their conditions may differ.
Columns and labels:
[1] = tested on: human umbilical vein endothelial cells (HUVECs); test: HUVEC proliferation assay (WST-1), 3-day, 2,000 cells per well; format: cell-based; settings: 3-day assay; for anti-proliferative activity in words: overall; for anti-proliferative activity (maximum or stated level), scaled so that TNP-470 = 100%: 0.01-30 μg/ml; for anti-proliferative activity in words at high peptide concentration: high/highest applied concentration (30 μg/ml where stated)
Procedure: In addition to the 2 and 4 day proliferation experiment where 5,000 cells per well were seeded, the effects of the peptides on the proliferating ability of HUVECs were also studied using cells seeded at a density of 2,000 cells per well. This lower cell seeding density allowed the experiment to be extend for an additional day without changing the cell medium. The effects of the peptides when applied to the cells for 3 consecutive days is also reported herein. The proliferation assay again involved two steps. During the first step 2,000 cells per well for a 96-well plate were seeded without any extracellular matrix substrate on the wells overnight (8 hours). The initial cell culture medium was removed using a multichannel pipetor. To synchronize the cells, the cells were serum starved for 4 hours and the candidate peptides were applied. During serum starvation the cell culture medium was changed from a “full” medium to the “basal” medium, which contained no growth factors or serum. Serum starvation for 4 hours had no effect on the proliferation of the cells. For this assay, the logarithmic scale of four different concentrations of 0.01 μg/ml, 0.1 μg/ml, 1 μg/ml and 10 μg/ml of peptide was used. In addition, a larger concentration of 30 μg/ml peptide was also applied. Each of the concentrations was again tested in quadruplicate. After the third day of peptide application the WST-1 dye was applied for approximately 2 to 4 hours (usually after 3 hours the color saturates). The proliferation was later tested on the ELISA plate reader as described for the 2 and 4 day assay. Note that the 2- and 4-day and the 3-day protocols differed in that 5,000 cells/well versus 2,000 cells/well seeded, respectively.

[2] = tested on: human umbilical vein endothelial cells (HUVECs); test: HUVEC proliferation assay (WST-1), 2- and 4-day, 5,000 cells per well; format: cell-based; settings: for concentration-response profile in words: 2- and/or 4-day assay
Procedure: The effect of the various peptides on cell proliferation was assayed, by administering the peptides to human umbilical vein endothelial cells (HUVECs) in culture. 45 peptides belonging to four distinct families of proteins including the thrombospondin-1 containing proteins, the C-X-C chemokines, collagen derived peptides and peptides from tissue inhibitors of metalloproteinases were tested. The potency of each of the peptides was tested using the proliferation assay at 2 days and 4 days following administration of the peptides and a similar assay using a different cell density at 3 days. In the four-day experiments, the cell medium was changed after the second day of incubation and the peptide was replaced at the initial concentration together with the medium. TNP-470 is an antiangiogenic compound that was used as a positive control for assessing anti-angiogenic efficacy. The activity of each polypeptide was, therefore, expressed as a percentage of TNP-470 activity, i.e., the optical density obtained experimentally is scaled such that the negative control is 0% and the positive control is 100% as explained below (FIG. 4). Each plate included a well having HUVEC cells that received 0.1 μg/ml TNP-470. For example, a peptide having the same effect on endothelial cell proliferation would have 100% of the activity of TNP-470. Note that activity could exceed 100%. In this assay, the effects of the predicted anti-angiogenic fragments on the ability of HUVECs to proliferate was characterized. […] A commonly used methodology to test for proliferation is to monitor the viability and metabolic activity of endothelial cells, in the presence of the anti-angiogenic fragments at different concentrations and various time steps. The cell proliferation reagent WST-1 was used as a substrate/assay to measure the metabolic activity of viable cells. WST-1 is a colorimetric, non-radioactive assay and can be performed in a microplate. It is suitable for measuring cell proliferation, cell viability or cytotoxicity. The assay is based on the reduction a red tetrazolium salt, WST-1, by viable, metabolically active, cells to form the yellow formazan crystals soluble in the cell medium. […] The cells are cultured described above. Once cells have reached 80% confluence they are trypsinized and resuspended in EGM-2. The cell density is estimated using a hemocytometer. All of the endothelial cells used were from passage 4 to passage 8. The proliferation assay involved two steps. During the first step the cells, approximately 5,000 cells per well for a 96-well plate, were seeded without any extracellular matrix substrate on the wells overnight (8 hours). The initial cell culture medium was removed using a multichannel pipetor and the candidate peptides were applied. A logarithmic scale of four different concentrations of 0.01 μg/ml, 0.1 μg/ml, 1 μg/ml and 10 μg/ml of each peptide was used. Each of the concentrations was tested in quadruplicate. The viability of the cells was challenged at 2 and 4 days upon the application of the peptide. As a positive control for decreased viability, 0.1 μg/ml of TNP-470 (O-(chloro-acetyl-carbamoyl) fumagillol, a synthetic analogue of fumagillin; TNP-470 was provided by NCI, was provided along with the medium, and as a negative control for normal viability, the cells were cultured without the addition of any agent. The cells were then incubated with 10 μl per well of the red WST-1 reagent for approximately 2 to 4 hours. During this incubation period, viable cells converted, in their mitochondria, the red WST-1 to the yellow formazan crystals which dissolve in the medium. The second step of the assay involved the quantification of the changes in proliferation which was performed by measuring the change in color after lysing the cells. The samples were read using the ELISA plate reader Victor3 V (Perkin Elmer) at a wavelength of […]. The amount of color produced is directly proportional to the number of viable cells. […]

[3] = 4 days of peptide application, 0.01-10 μg/ml
[4] = 10 μg/ml peptide, 2- and 4-day assay
[5] = 2- and 4-day assay, day not specified or constant throughout the four days
[6] = 2 days of peptide application, 0.01-10 μg/ml
[7] = 2- and 4-day assay, day not specified

Sequence: AAPFLECQGRQGTCHFFAN [SEQ ID NO: 87, α4CIV CAA56943.1: 1628-1646]
- concentration-response profile in words [1]: activity increased with increasing the applied peptide concentration
- anti-proliferative activity in words [1]: similar
- anti-proliferative activity in words ([2]; 2 days of peptide application): intermediate activity

Sequence: ASWSACSVSCGGGARQRTR [SEQ ID NO: 45, Fibulin-6 CAC37630.1: 1745-1763]
- concentration-response profile in words [1]: biphasic response
- peptide concentration at which maximum activity was observed [1]: 0.1 µg/mL
- anti-proliferative activity (maximum or stated level), scaled so that TNP-470 = 100% [1]: 20%
- concentration-response profile in words [2]: biphasic activity
- peptide concentration at which maximum activity was observed ([2]; 2 days): 0.1 µg/mL
- anti-proliferative activity (maximum or stated level), scaled so that TNP-470 = 100% [2, 3]: approximately 30%

Sequence: DGRELCLDPKENWVQRVVEKFLK [SEQ ID NO: 110, IL-8/CXCL8 AAP35730.1: 72-94]
- anti-proliferative activity in words at high peptide concentration [1]: higher
- anti-proliferative activity, TNP-470 = 100% [2, 4]: 20%

Sequence: DGRKICLDPDAPRIKKIVQKKL [SEQ ID NO: 114, THBG-β/CXCL7 AAB46877.1: 100-121]
- anti-proliferative activity, TNP-470 = 100% [2, 4]: 15%

Sequence: ECLWTDMLSNFGYPGYQSKHYACI [SEQ ID NO: 155, TIMP 3 AAA21815.1: 148-171]
- anti-proliferative activity (maximum or stated level), scaled so that TNP-470 = 100% [2, 5]: 30%
- anti-proliferative activity (maximum or stated level), scaled so that TNP-470 = 100% [2, 6]: 30%

Sequence: GPWAPCSASCGGGSQSRS [SEQ ID NO: 48, Papilin NP_775733.2: 342-359]
- anti-proliferative activity (maximum or stated level), scaled so that TNP-470 = 100% [2, 5]: 30%

Sequence: GPWEDCSVSCGGGEQLRSR [SEQ ID NO: 63, SCO-spondin XP_379967.2: 3781-3799]
- anti-proliferative activity (maximum or stated level), scaled so that TNP-470 = 100% [1]: 25%
- anti-proliferative activity (maximum or stated level), scaled so that TNP-470 = 100% [2, 5]: ~15%
- anti-proliferative activity in words ([2]; 2- and 4-day assay, overall): low anti-proliferative activity

Sequence: GPWEPCSVTCSKGTRTRRR [SEQ ID NO: 49, Properdin AAP43692.1: 143-161]
- anti-proliferative activity in words at high peptide concentration [1]: significantly increased
- peptide concentration at which maximum activity was observed [2, 7]: 0.01 µg/mL
- anti-proliferative activity (maximum or stated level), scaled so that TNP-470 = 100% [2, 5]: 30%
- concentration-response profile in words [2]: biphasic response
- anti-proliferative activity (maximum or stated level), scaled so that TNP-470 = 100% [2, 3]: 20%

Sequence: GPWERCTAQCGGGIQARRR [SEQ ID NO: 60, Semaphorin 5A NP_003957.1: 660-678]
- anti-proliferative activity (maximum or stated level), scaled so that TNP-470 = 100% [1]: 35%
- peptide concentration at which maximum activity was observed [2, 7]: higher than 1 μg/ml
- anti-proliferative activity (maximum or stated level), scaled so that TNP-470 = 100% [2, 5]: 25%
- anti-proliferative activity in words ([2]; 2 days of peptide application): minimum anti-proliferative activity
- anti-proliferative activity in words ([2]; 4 days of peptide application): intermediate activity

Sequence: GPWGDCSRTCGGGVQFSSR [SEQ ID NO: 7, ADAMTS-4 CAH72146.1: 527-545]
- peptide concentration at which maximum activity was observed ([2]; 4 days): 10 µg/mL
- anti-proliferative activity (maximum or stated level), scaled so that TNP-470 = 100% [2, 3]: 35%

Sequence: GPWGECSRTCGGGVQFSHR [SEQ ID NO: 14, ADAMTS-8 Q9UP79: 534-552]
- concentration-response profile in words [1]: biphasic response
- anti-proliferative activity in words at 10 μg/ml [2, 4]: reduced
- concentration-response profile in words [2]: biphasic response
- peptide concentration at which maximum activity was observed ([2]; 2 days): 1 µg/mL
- anti-proliferative activity (maximum or stated level), scaled so that TNP-470 = 100% [2, 6]: 35%
- peptide concentration at which maximum activity was observed ([2]; 4 days): 1 µg/mL
- anti-proliferative activity (maximum or stated level), scaled so that TNP-470 = 100% [2, 3]: 30%

Sequence: KCHGHGVCNSNKN [SEQ ID NO: 1, ADAM-9 Q13443: 649-661]
- anti-proliferative activity (maximum or stated level), scaled so that TNP-470 = 100% [2, 5]: ~20%

Sequence: LCMTKSDCYQPAWYIHEGFYNLSG [SEQ ID NO: 159, reference compound]
- anti-proliferative activity in words ([2]; 2- and 4-day assay, overall): not statistically significant

Sequence: LRRFSTMPFMFCNINNVCNF [SEQ ID NO: 89, α5CIV AAC27816.1: 1510-1529]
- anti-proliferative activity in words at high peptide concentration [1]: increased even more
- anti-proliferative activity in words [1]: reproducible
- anti-proliferative activity, TNP-470 = 100% [2, 4]: 80%

Sequence: MQCHGRGVCNNRKN [SEQ ID NO: 2, ADAM-12 O43184: 662-675]
- concentration-response profile in words [1]: activity increasing as the peptide concentration increased
- anti-proliferative activity in words ([2]; 2 days of peptide application): showed activity

Sequence: NGKEICLDPEAPFLKKVIQKILD [SEQ ID NO: 95, ENA-78/CXCL5 AAP35453.1: 86-108]
- anti-proliferative activity in words at high peptide concentration [1]: high activity
- anti-proliferative activity in words [1]: reproducible over all tested concentrations
- anti-proliferative activity, TNP-470 = 100% ([2]; 0.01 μg/ml peptide, 2 days): approximately 30%

Sequence: NGKKACLNPASPMVQKIIEKIL [SEQ ID NO: 106, GRO-γ/MIP-2β/CXCL3 AAA63184.1: 79-100]
- peptide concentration at which maximum activity was observed [1]: 0.01 µg/mL
- peptide concentration at which maximum activity was observed [2, 7]: 0.01 µg/mL
- anti-proliferative activity (maximum or stated level), scaled so that TNP-470 = 100% [2, 3]: 15%

Sequence: NGKQVCLDPEAPFLKKVIQKILDS [SEQ ID NO: 98, GCP-2/CXCL6 AAH13744.1: 86-109]
- concentration-response profile in words [1]: biphasic behavior
- anti-proliferative activity in words at high peptide concentration [1]: increased
- anti-proliferative activity, TNP-470 = 100% ([2]; 0.01 μg/ml peptide, 2 days): 30%
- anti-proliferative activity in words at 10 μg/ml [2, 4]: Virtually no anti-proliferative activity
- anti-proliferative activity (maximum or stated level), scaled so that TNP-470 = 100% [2, 5]: 35%
- concentration-response profile in words [2]: biphasic behavior; also recorded: biphasic response

Sequence: NGRKACLNPASPIVKKIIEKMLNS [SEQ ID NO: 102, GRO-α/CXCL1 AAP35526.1: 80-103]
- anti-proliferative activity in words at high peptide concentration [1]: significantly increased
- anti-proliferative activity in words at 10 μg/ml [2, 4]: statistically insignificant
- anti-proliferative activity (maximum or stated level), scaled so that TNP-470 = 100% [2, 5]: 15%

Sequence: QDVFNKDGKVILLSPQAICLPKEK [SEQ ID NO: 158, reference compound]
- anti-proliferative activity in words ([2]; 2- and 4-day assay, overall): not statistically significant

Sequence: QPWGTCSESCGKGTQTRAR [SEQ ID NO: 44, Fibulin-6 CAC37630.1: 1688-1706]
- concentration-response profile in words [1]: activity increased with increasing peptide concentration
- concentration-response profile in words [2]: biphasic behavior
- peptide concentration at which maximum activity was observed ([2]; 4 days): 0.01 µg/mL
- anti-proliferative activity (maximum or stated level), scaled so that TNP-470 = 100% [2, 3]: ~40%

Sequence: SPWTKCSATCGGGHYMRTR [SEQ ID NO: 61, Semaphorin 5A NP_003957.1: 848-866]
- anti-proliferative activity in words ([2]; 2- and 4-day assay, overall): no anti-proliferative activity

Sequence: SQWSPCSRTCGGGVSFRER [SEQ ID NO: 47, Papilin NP_775733.2: 33-51]
- anti-proliferative activity in words ([2]; 2- and 4-day assay, overall): minimal anti-proliferative activity

Sequence: TSWSPCSASCGGGHYQRTR [SEQ ID NO: 62, Semaphorin 5B AAQ88491.1: 916-934]
- anti-proliferative activity (maximum or stated level), scaled so that TNP-470 = 100% [2, 5]: 10%

Source: US9187539B2, “Compositions having antiangiogenic activity and uses thereof” (The Johns Hopkins University, priority 2005, dated 2015)
